From ChEMBL document CHEMBL1165894, “Synthesis and pharmacological characterization of a novel nitric oxide-releasing diclofenac derivative containing a benzofuroxan moiety” (Eur J Med Chem, 2010)
Activity calls are given as the source filed them. The calls are words filed in the database; no cut-off is given here.

Legend:
Blood [1] = experiment: Antiinflammatory activity in human whole blood assessed as inhibition of LPS-induced PGE2 production at 1 to 100 uM after 18 hrs by ELISA; format: functional, tissue-based
Rattus norvegicus [2] = experiment: Antiinflammatory activity in Wistar rat assessed as reduction in carrageenan-induced paw edema at 100 mg/kg, ip after 0.5 to 4 hrs; format: functional, organism-based; set-up: dose 100 mg/kg
Rattus norvegicus [3] = experiment: Toxicity in Wistar rat assessed as reduction in PGE2 level in gastric mucosa at 30 mg/kg, po; format: organism-based; set-up: dose 30 mg/kg, route oral; conditions: in vivo
Blood [4] = experiment: Antiinflammatory activity in human whole blood assessed as inhibition of LPS-induced production at 0.01 to 100 uM after 18 hrs by ELISA
[5] = Induction of NO release in phosphate buffer containing L-cysteine at pH 7.4 assessed as nitrite level by Griess assay; format: physicochemical

Q: With `O=C(Cc1ccccc1Nc1c(Cl)cccc1Cl)OCc1ccc2no[n+]([O-])c2c1` as the molecule, how does the Activity (Blood [1]) read?
A: Active

Q: What about the Activity (Rattus norvegicus [2]) of the same molecule?
A: Active

Q: What about the Activity (Rattus norvegicus [3]) of the same molecule?
A: Toxic

Q: And the Activity (Blood [4])?
A: Active

Q: And the Activity [5]?
A: 372 nM
